Our source for the EC50 values is patent publication US20200138827A1, “SMALL MOLECULE MODULATORS OF HUMAN STING” (Curadev Pharma Limited, priority 2017, published 2020).

As usually defined, the EC50 is the concentration needed to bring the measured effect to its halfway point.

The target of one assay is T1, hSTING(H232) (Homo sapiens, UniProt Q86WV6).
T1 construct: host or cells: HEK293T
The assay can be described thus: Luciferase reporter assay in HEK293T-hSTING-Luciferase cells, H232 polymorph. Type of assay: cell-based. The following applies: 20 hr stimulation, read-out: H232 activity (EC50 range). The procedure, abridged: (§1)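 HEK293T clones stably expressed the given human STING variant plus luciferase under an ISRE/ISG54 IRF-inducible promoter. 5×10^5 cells were stimulated with compound for 20 hr, and secreted luciferase in the supernatant was measured by Quanti-Luc luminescence.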
(In a reporter assay the amount or activity of a reporter protein is the signal.)

A further assay has as its target T2, hSTING(HAQ) (Homo sapiens, UniProt Q86WV6, G230A/H232R/R293Q/R71H).
T2 construct: host or cells: HEK293T
The assay can be described thus: Luciferase reporter assay in HEK293T-hSTING-Luciferase cells, HAQ polymorph. Type of assay: cell-based. The following applies: 20 hr stimulation, read-out: HAQ activity (EC50 range). The procedure, abridged: as §1

Another assay has as its target T3, WT/R232 STING protein (Homo sapiens, UniProt Q86WV6, H232R).
T3 construct: host or cells: HEK293T
In words: Luciferase reporter assay in HEK293T-hSTING-Luciferase cells, WT/R232. The assay is classed as cell-based. As to conditions: 20 hr stimulation, read-out: R232 Activity (EC50 range). The procedure, abridged:
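Clonal HEK293T cells stably expressing human STING R232 plus an ISRE/ISG54-driven luciferase reporter, 5×10^5 per well, stimulated with compounds for 20 h. Secreted luciferase in supernatant measured by luminescence; […].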

The subject of a further assay is NF-κB pathway. The assay can be described thus: Reporter gene expression assay in THP1-Dual cells, NFkB axis (secreted SEAP). The assay is classed as cell-based, human. As to conditions: read-out: THP-NFKB activity (EC50 range). The gist of the method:
(§2)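 THP-1-derived cells carrying inducible NF-κB-SEAP and IRF-Lucia reporters, seeded at 5×10^5 and stimulated with compounds. After […], supernatant SEAP read with QUANTI-Blue and Lucia luciferase with QUANTI-Luc.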

For the next assay, the system named is IRF pathway. The assay can be described thus: Reporter gene expression assay in THP1-Dual cells, IRF axis (secreted Lucia luciferase). Type of assay: cell-based, human. As to conditions: read-out: THP-IRF activity (EC50 range). The procedure, abridged: as §2

Like-named read-outs stand apart in the source and are kept apart here.

T1 sequence (Q86WV6 whole entry): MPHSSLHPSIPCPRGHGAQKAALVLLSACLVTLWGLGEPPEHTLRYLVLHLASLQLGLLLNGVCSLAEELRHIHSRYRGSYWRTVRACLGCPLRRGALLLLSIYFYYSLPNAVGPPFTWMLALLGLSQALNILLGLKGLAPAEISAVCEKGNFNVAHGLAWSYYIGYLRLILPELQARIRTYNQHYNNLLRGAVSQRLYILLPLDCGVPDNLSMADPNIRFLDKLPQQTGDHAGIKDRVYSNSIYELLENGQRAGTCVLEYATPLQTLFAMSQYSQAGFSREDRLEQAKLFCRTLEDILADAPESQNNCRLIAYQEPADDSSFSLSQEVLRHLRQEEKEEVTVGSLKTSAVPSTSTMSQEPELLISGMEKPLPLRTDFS
T2 sequence (Q86WV6 whole entry R71H/G230A/H232R/R293Q): as the sequence (Q86WV6 whole entry) above, with R71H, G230A, H232R, R293Q counted along it
T3 sequence (Q86WV6 whole entry H232R): as the sequence (Q86WV6 whole entry) above, with H232R counted along it

Regarding `C[C@H]1Oc2ccc(C(=O)NCc3c(F)cc(F)cc3F)cc2N(Cc2cc(F)cc(F)c2)C1=O` [Example 233, (R)-4-(3,5-difluorobenzyl)-2-methyl-3-oxo-N-(2,4.,6-trifluorobenzyl)-3,4-dihydro-2H-benzo[b-1,4]oxazine-6-carboxamide], the half-maximal effective concentration (EC50) at hSTING(H232) was 1 to 10 µM; on hSTING(HAQ), 1 to 10 µM; on WT/R232 STING protein, below 1 µM; with NF-κB pathway (Homo sapiens, THP1-Dual), above 10 µM; with IRF pathway (Homo sapiens, THP1-Dual), above 10 µM.

Regarding `C[C@@H]1Oc2ccc(C(=O)NCc3c(F)cc(F)cc3F)cc2N(Cc2cc(F)cc(F)c2)C1=O` [Example 234, (S)-4-(3,5-difluorobenzyl)-2-methyl-3-oxo-N-(2,4,6-trifluorobenzyl)-3,4-dihydro-2H-benzo[b-1,4]oxazine-6-carboxamide], the concentration giving a half-maximal response (EC50) is 1 to 10 µM at hSTING(H232); 1 to 10 µM on hSTING(HAQ); below 1 µM on WT/R232 STING protein; above 10 µM with NF-κB pathway (Homo sapiens, THP1-Dual); above 10 µM in the assay with IRF pathway (Homo sapiens, THP1-Dual).

On to `C[C@@H]1Oc2ccc(C(=O)NCc3cc4ccccc4o3)cc2N(Cc2cc(F)cc(F)c2)C1=O` [Example 235, (S)-N-(benzofuran-2-ylmethyl)-4-(3,5-difluorobenzyl)-2-methyl-3-oxo-3,4-dihydro-2H-benzo[b-1,4]oxazine-6-carboxamide], for which the EC50 on hSTING(H232) is 1 to 10 µM; on hSTING(HAQ) it was 1 to 10 µM; on WT/R232 STING protein, below 1 µM; in the assay with NF-κB pathway (Homo sapiens, THP1-Dual), 1 to 10 µM; with IRF pathway (Homo sapiens, THP1-Dual), 1 to 10 µM.

For the compound `C[C@H]1Oc2ccc(C(=O)NCc3c(F)cc(F)cc3F)cc2N(Cc2cc(F)cc(F)c2)C1=O` [Example 242, (R)-4-(3,5-difluorobenzyl)-2-methyl-3-oxo-N-(2,4,6-trifluorobenzyl)-3,4-dihydro-2H-benzo[b][1,4] oxazine-6-carboxamide], the 50% effective concentration (EC50) at hSTING(H232) is above 10 µM; at hSTING(HAQ), 1 to 10 µM; at WT/R232 STING protein it was below 1 µM; in the assay with NF-κB pathway, above 10 µM; in the assay on IRF pathway, above 10 µM.

Turning to `C[C@@H]1Oc2ccc(C(=O)NCc3c(F)cc(F)cc3F)cc2N(Cc2cc(F)cc(F)c2)C1=O` [Example 243, (S)-4-(3,5-difluorobenzyl)-2-methyl-3-oxo-N-(2,4,6-trifluorobenzyl)-3,4-dihydro-2H-benzo[b][1,4] oxazine-6-carboxamide], the EC50 is below 1 µM at hSTING(H232); below 1 µM at hSTING(HAQ); below 1 µM at WT/R232 STING protein; above 10 µM in the assay on NF-κB pathway; above 10 µM with IRF pathway.

For the compound `O=C(NCc1c(F)cc(F)cc1F)c1ccc2c(c1)N(C(=O)c1c(F)cccc1Cl)CCS2` [Example 258, 4-(2-chloro-6-fluorobenzoyl)-N-(2,4,6-trifluorobenzyl)-3,4-dihydro-2H-benzo[b][1,4]thiazine-6-carboxamide], the 50% effective concentration (EC50) at hSTING(H232) is above 10 µM; at hSTING(HAQ), above 10 µM; at WT/R232 STING protein it was 1 to 10 µM; with NF-κB pathway (Homo sapiens, THP1-Dual), above 10 µM; in the assay with IRF pathway (Homo sapiens, THP1-Dual) it was above 10 µM.

With `CC1Cc2ccc(C(=O)NCc3c(F)cc(F)cc3F)cc2N(Cc2c(F)cccc2Cl)C1=O` (stereo not shown) [Example 267, 1-(2-Chloro-6-fluorobenzyl)-3-methyl-2-oxo-N-(2,4,6-trifluorobenzyl)-1,2,3,4-tetrahydroquinoline-7-carboxamide], the EC50 at hSTING(H232) was below 1 µM; on hSTING(HAQ) it was below 1 µM; at WT/R232 STING protein it was below 1 µM; in the assay with NF-κB pathway (Homo sapiens, THP1-Dual), 1 to 10 µM; in the assay on IRF pathway (Homo sapiens, THP1-Dual), 1 to 10 µM.

Consider `O=C(NCc1ccc(F)cc1)c1ccc2c(c1)N(Cc1c(F)cccc1Cl)C(=O)CC2` [Example 269, 1-(2-chloro-6-fluorobenzyl)-N-(4-fluorobenzyl)-2-oxo-1,2,3,4-tetrahydroquinoline-7-carboxamide], for which the EC50 at hSTING(H232) is above 10 µM; at hSTING(HAQ), 1 to 10 µM; at WT/R232 STING protein, below 1 µM; in the assay on NF-κB pathway (Homo sapiens, THP1-Dual), above 10 µM; in the assay on IRF pathway (Homo sapiens, THP1-Dual), above 10 µM.

In the case of `O=C(NCc1c(F)cc(F)cc1F)c1ccc2c(c1)N(Cc1c(F)cccc1Cl)C(=O)CC2` [Example 270, 1-(2-chloro-6-fluorobenzyl)-2-oxo-N-(2,4,6-trifluorobenzyl)-1,2,3,4-tetrahydroquinoline-7-carboxamide], the EC50 on hSTING(H232) was below 1 µM; on hSTING(HAQ) it was 1 to 10 µM; on WT/R232 STING protein, below 1 µM; in the assay with NF-κB pathway (Homo sapiens, THP1-Dual), 1 to 10 µM; with IRF pathway (Homo sapiens, THP1-Dual), above 10 µM.

As for `CC1(C)CC(=O)N(Cc2cc(F)cc(F)c2)c2cc(C(=O)NCc3c(F)cc(F)cc3F)ccc21` [Example 271, 1-(3,5-difluorobenzyl)-4,4-dimethyl-2-oxo-N-(2,4,6-trifluorobenzyl)-1,2,3,4-tetrahydroquinoline-7-carboxamide], the half-maximal effective concentration (EC50) on hSTING(H232) is below 1 µM; at hSTING(HAQ), below 1 µM; on WT/R232 STING protein, below 1 µM; with NF-κB pathway (Homo sapiens, THP1-Dual), 1 to 10 µM; in the assay on IRF pathway (Homo sapiens, THP1-Dual), 1 to 10 µM.

As for `O=C(NCc1ccc(F)cc1F)c1ccc2c(n1)N(Cc1cc(F)cc(F)c1)C(=O)CC2` [Example 279, N-(2,4-difluorobenzyl)-8-(3,5-difluorobenzyl)-7-oxo-5,6,7,8-tetrahydro-1,8-naphthyridine-2-carboxamide], the EC50 on hSTING(H232) is above 10 µM; at hSTING(HAQ), above 10 µM; at WT/R232 STING protein, 1 to 10 µM; in the assay with NF-κB pathway (Homo sapiens, THP1-Dual), above 10 µM; with IRF pathway (Homo sapiens, THP1-Dual), above 10 µM.

In the case of `O=C(NCc1cc2ccccc2o1)c1ccc2c(n1)N(Cc1cc(F)cc(F)c1)C(=O)CC2` [Example 281, N-(benzofuran-2-ylmethyl)-8-(3,5-difluorobenzyl)-7-oxo-5,6,7,8-tetrahydro-1,8-naphthyridine-2-carboxamide], the half-maximal effective concentration (EC50) on hSTING(H232) is 1 to 10 µM; at hSTING(HAQ), 1 to 10 µM; at WT/R232 STING protein, 1 to 10 µM; in the assay on NF-κB pathway (Homo sapiens, THP1-Dual), above 10 µM; with IRF pathway (Homo sapiens, THP1-Dual), above 10 µM.

`O=C(NCc1c(F)cc(F)cc1F)c1ccc2c(c1)N(Cc1cc(F)cc(F)c1)S(=O)(=O)CC2` [Example 284, 1-(3,5-Difluorobenzyl)-N-(2,4,6-trifluorobenzyl)-3,4-dihydro-1H-benzo[c][1,2]thiazine-7-carboxamide 2,2-dioxide]: the EC50 at hSTING(H232) was above 10 µM; on hSTING(HAQ) it was above 10 µM; at WT/R232 STING protein it was below 1 µM; in the assay with NF-κB pathway (Homo sapiens, THP1-Dual) it was above 10 µM; in the assay with IRF pathway (Homo sapiens, THP1-Dual), above 10 µM.

`CC1Cc2ccc(C(=O)NCc3c(F)cc(F)cc3F)cc2N(Cc2cc(F)cc(F)c2)S1(=O)=O` (stereo not shown) [Example 285, 1-(3,5-Difluorobenzyl)-3-methyl-N-(2,4,6-trifluorobenzyl)-3,4-dihydro-1H-benzo[c][1,2]thiazine-7-carboxamide 2,2-dioxide]: the concentration giving a half-maximal response (EC50) on hSTING(H232) was 1 to 10 µM; at hSTING(HAQ) it was 1 to 10 µM; at WT/R232 STING protein, 1 to 10 µM; in the assay on NF-κB pathway (Homo sapiens, THP1-Dual) it was above 10 µM; in the assay on IRF pathway (Homo sapiens, THP1-Dual), above 10 µM.
